{
  "source": "patent US20090270612A1",
  "about": "“Therapeutic Agent for Osteoporosis Using a Retinoid X Receptor-Related Compound” (priority 2005, published 2009)",
  "test_system": "OPG knockout mice",
  "test": "Bone morphometry of lumbar trabecular bone and femoral cortical bone in OPG knockout mice given drug in feed",
  "type": "in vivo, mouse",
  "conditions": "0.03% drug in paste feed, 4 weeks",
  "procedure": "OPG knockout mice (6 week-old) were divided into 3 groups with 7 mice being prepared for each group. These mice were obtained from CLEA Japan, Inc. and categorized into three groups: control group (Cont), HX531 group (HX), and LE 135 group (LE). LE135 is a compound synthesized as a nuclear receptor […] (RAR) antagonist.\nPaste feed is prepared by adding sterile water into and softening sterilized pellets in a dish. HX531 group and LE135 group were provided with the paste feed in which a corresponding drug was mixed. The amount of feed provided per day was fixed at 3 g per mouse in a solid state. The amount of drugs was calculated at 0.03% to the feed weight. Although the paste feed was exchanged everyday, almost no feed was left in all groups. A drug was administered successively for 4 weeks, and mice were double-labeled with tetracyclines and calceins by an abdominal administration 4 days and 2 days before they were sacrificed.\nWhile bone morphometry of femur (cortical bone) and lumbar (trabecular bone) was conducted, a histological observation of femur was made. Furthermore, a blood sample was taken before the sacrifice to measure a bone formation marker.",
  "data": [
    {"smiles": "CN1c2ccc([N+](=O)[O-])cc2N=C(c2ccc(C(=O)O)cc2)c2cc3c(cc21)C(C)(C)CCC3(C)C", "note": "[HX531]", "values": [
      {"measurement": "bone mass in a lumbar trabecular bone by bone morphometry", "setting": "FIG. 1", "result": "large compared to the mice from the control group or mice provided with LE135"},
      {"measurement": "trabecula number in a lumbar trabecular bone by bone morphometry", "setting": "FIG. 2", "result": "large compared to the mice from the control group or mice provided with LE135"},
      {"measurement": "bone resorption rate in a lumbar trabecular bone by bone morphometry", "setting": "FIG. 7", "result": "significantly low"},
      {"measurement": "osteoclast surface in a lumbar trabecular bone by bone morphometry", "setting": "FIG. 8", "result": "small compared to the mice from the control group"},
      {"measurement": "rarefaction surface/cortical bone in a femoral cortical bone by bone morphometry", "setting": "FIG. 11", "result": "significantly low compared to the mice from the control group"},
      {"measurement": "porous surface in a femoral cortical bone by bone morphometry", "setting": "FIG. 12", "result": "small"}
    ]}
  ]
}
